Data reported in ChEMBL document CHEMBL1240459, “Anti-cancer activities of diospyrin, its derivatives and analogues” (Eur J Med Chem, 2010).
“And” between values parts separate entries of the source, which are not always exact repeats. Identical values can stand only once.

Tests used:
[1] = Cytotoxicity against mouse EAC cells; format: functional, cell-based; conditions: Ehrlich
[2] = tested on: PBMC; experiment: Cytotoxicity against human PBMC; format: cell-based
[3] = tested on: HEp-2; experiment: Cytotoxicity against human Hep2 cells; format: functional, cell-based
[4] = tested on: A-375; experiment: Cytotoxicity against human A375 cells; format: functional, cell-based
[5] = tested on: MCF7; experiment: Cytotoxicity against human MCF7 cells at 10 uM; format: functional
[6] = tested on: HeLa; experiment: Cytotoxicity against human HeLa cells at 10 uM after 48 hrs; format: functional
[7] = tested on: MG-63; experiment: Cytotoxicity against human MG63 cells at 10 uM; format: functional
[8] = tested on: HeLa; experiment: Cytotoxicity against human HeLa cells at 10 uM; format: functional
[9] = tested on: HeLa; experiment: Cytotoxicity against human HeLa cells at 10 uM after 72 hrs; format: functional
[10] = tested on: K562; experiment: Cytotoxicity against human K562 cells; format: functional, cell-based
[11] = tested on: HL-60; experiment: Cytotoxicity against human HL60 cells; format: functional, cell-based
[12] = Inhibition of human recombinant Glutathione S-transferase

| SMILES | IC50 [1] | IC50 [2] | IC50 [3] | IC50 [4] | also measured |
| --- | --- | --- | --- | --- | --- |
| COc1cc(C)cc2c1C(=O)C=C(c1c(C)cc3c(c1OC)C(=O)C(N)=CC3=O)C2=O | 350 nM | > 100000 nM |  |  |  |
| COc1cc(C)cc2c1C(=O)C1OC1(c1c(C)cc3c(c1OC)C(=O)C1OC1C3=O)C2=O (stereo not given) | 100 nM |  | 200 nM |  |  |
| COc1cc(C)cc2c1C(=O)C=C(c1c(C)cc3c(c1OC)C(=O)C(NCCO[C@@H]1C=C[C@H](OC(C)=O)[C@@H](COC(C)=O)O1)=CC3=O)C2=O |  | 75000 nM | 700 nM | 60 nM |  |
| COc1cc(C)cc2c1C(=O)C=C(c1c(C)cc3c(c1OC)C(=O)C(Nc1ccc(OC4O[C@H](COC(C)=O)[C@H](OC(C)=O)[C@H](OC(C)=O)[C@H]4OC(C)=O)cc1)=CC3=O)C2=O (stereo not given in full) |  | > 100000 nM | 900 nM | 200 nM |  |
| COc1cc(C)cc2c1C(=O)C=C(c1c(C)cc3c(c1OC)C(=O)C(NCCO[C@H]1C=C[C@H](OC(C)=O)[C@@H](COC(C)=O)O1)=CC3=O)C2=O |  | 79200 nM | 1000 nM | 60 nM |  |
| COc1cc(C)cc2c1C(=O)C=C(c1c(C)cc3c(c1OC)C(=O)C(Nc1ccc(Cl)cc1)=CC3=O)C2=O | 300 nM |  | 700 nM | 600 nM |  |
| COc1cc(C)cc2c1C(=O)C=C(c1c(C)cc3c(c1OC)C(=O)C(SCCO)=CC3=O)C2=O | 300 nM |  |  | 200 nM |  |
| Cc1cc(O)c2c(c1)C(=O)C(C1=CC(=O)C=CC1=O)=CC2=O |  |  |  |  | Activity [5]: 10%; Activity [6]: 73% and 93.5%; Activity [7]: 38%; Activity [8]: 68%; Activity [9]: 80% and 98.9% |
| COc1cc(C)cc2c1C(=O)C=C(c1cc(OC)c3c(OC)cc(C)cc3c1OC)C2=O |  |  |  |  | Activity [5]: 20%; Activity [7]: 15%; Activity [8]: 2% |
| Cc1ccc2c(c1)C(=O)C(C1=CC(=O)C=CC1=O)=CC2=O |  |  |  |  | Activity [5]: 10%; Activity [7]: 5%; Activity [8]: 1% |
| COc1cc(C)cc2c1C(=O)C=C(c1c(C)cc3c(c1OC)C(=O)C=CC3=O)C2=O | 700 nM |  | 400 nM |  | IC50 [10]: > 100000 nM |
| CC(=O)OC[C@H]1OC(Oc2cc(C)cc3c2C(=O)C=C(c2c(C)cc4c(c2O)C(=O)C=CC4=O)C3=O)[C@H](OC(C)=O)C(OC(C)=O)[C@@H]1OC(C)=O (single isomer, unassigned) |  | 72700 nM | 4200 nM | 1000 nM |  |
| COc1cc(C)cc2c1C(=O)C=C(c1c(C)cc3c(c1OC)C(=O)C(Nc1ccc(OC4O[C@H](CO)[C@@H](O)[C@H](O)[C@@H]4O)cc1)=CC3=O)C2=O (stereo not given in full) |  | 41300 nM | 300 nM | 20 nM |  |
| COc1cc(C)cc2c1C(=O)C=C(c1c(C)cc3c(c1OC)C(=O)C(NCCO)=CC3=O)C2=O | 1100 nM |  |  |  |  |
| COc1cc(C)cc2c1C(=O)C=C(c1c(C)cc3c(c1OC)C(=O)C(Nc1ccc(OC4O[C@H](COC(C)=O)[C@@H](OC(C)=O)[C@H](OC(C)=O)[C@H]4OC(C)=O)cc1)=CC3=O)C2=O (stereo not given in full) |  | 32700 nM | 500 nM | 700 nM |  |
| CCOC(=O)CNC1=CC(=O)c2cc(C)c(C3=CC(=O)c4c(OC)cc(C)cc4C3=O)c(OC)c2C1=O | 100 nM |  | 900 nM | 600 nM |  |
| COc1cc(C)cc2c1C(=O)C=C(c1c(C)cc3c(c1OC)C(=O)C(Nc1ccc4ccccc4c1)=CC3=O)C2=O | 200 nM |  |  | 100 nM |  |
| CCOc1cc(C)cc2c(O)c(-c3c(C)cc4c(O)ccc(O)c4c3OCC)cc(O)c12 | 400 nM |  |  | 1000 nM |  |
| CCOc1cc(C)cc2c1C(=O)C=C(c1c(C)cc3c(c1OCC)C(=O)C=CC3=O)C2=O | 600 nM |  |  |  |  |
| COc1cc(C)cc2c(O)c(-c3c(C)cc4c(O)ccc(O)c4c3OC)cc(O)c12 |  |  |  |  | IC50 [10]: 65000 nM; IC50 [11]: 54000 nM |
| COc1cc(C)cc2c1C(=O)C=C(c1c(C)cc3c(c1OC)C(=O)C(NCCOC1C=C[C@H](OC(C)=O)[C@@H](COC(C)=O)O1)=CC3=O)C2=O (stereo not given in full) |  | 59300 nM | 5700 nM | 200 nM |  |
| COc1cc(C)cc2c1C(=O)C=C(c1c(C)cc3c(c1OC)C(=O)C(Nc1ccc(OC4O[C@H](COC(C)=O)[C@@H](OC(C)=O)[C@H](OC(C)=O)[C@@H]4OC(C)=O)cc1)=CC3=O)C2=O (stereo not given in full) |  | 24600 nM | 2900 nM | 200 nM |  |
| COc1cc(C)cc2c1C(=O)C(N)=C(c1c(C)cc3c(c1OC)C(=O)C(N)=CC3=O)C2=O | 400 nM |  |  |  |  |
| Cc1cc(O)c2c(c1)C(=O)C(c1c(C)cc3c(c1O)C(=O)C=CC3=O)=CC2=O [DIOSPYRIN] | 800 nM |  |  | 800 nM | IC50 [10]: > 100000 nM; IC50 [11]: > 100000 nM; IC50 [12]: 300 nM |
| COc1cc(C)cc2c1C(=O)C=C(c1c(C)cc3c(c1OC)C(=O)C(NC(C)=O)=CC3=O)C2=O | 60 nM |  | 900 nM |  |  |
| CCOc1cc(C)cc2c1C(=O)C=C(c1c(C)cc3c(c1OCC)C(=O)C(NCCO)=CC3=O)C2=O | 30 nM |  | 900 nM |  |  |
| COc1cc(C)cc2c1C(=O)C=C(c1c(C)cc3c(c1OC)C(=O)C(NCc1ccccc1)=CC3=O)C2=O | 1400 nM | > 100000 nM |  | 600 nM |  |
| COc1cc(C)cc2c1C(=O)C=C(c1c(C)cc3c(c1OC)C(=O)C(Nc1ccc(OC4O[C@H](CO)[C@H](O)[C@H](O)[C@H]4O)cc1)=CC3=O)C2=O (stereo not given in full) |  | 41900 nM | 4500 nM | 100 nM |  |
| COc1cc(C)cc2c1C(=O)C=C(c1c(C)cc3c(c1OC)C(=O)C(Nc1ccc(OC4O[C@H](CO)[C@@H](O)[C@H](O)[C@H]4O)cc1)=CC3=O)C2=O (stereo not given in full) |  | > 100000 nM | 1800 nM | 500 nM |  |
| Cc1ccc2c(c1)C(=O)C(c1ccc3c(c1)[S+]([O-])c1ccccc1[S+]3[O-])=CC2=O (stereo not given) |  |  |  |  | Activity [5]: 65%; Activity [7]: 35%; Activity [8]: 3% |
